PMC6887720 (Pharmacology Research & Perspectives, 2019)
Where two headings read alike, the source gives them in different places. Residues, ends and D or L forms follow the SMILES beside them. No end group written: not given here.

How the values were obtained:
[1] = target: T1, truncated beagle MrgX2 (beMrgX2) (Canis lupus familiaris, UniProt A0A4Y5P885); assay: Ca2+ mobilization; format: cell-based, beagle dog; conditions: for calcium response (in words): truncated beMrgX2
T1 sequence (A0A4Y5P885 88-417): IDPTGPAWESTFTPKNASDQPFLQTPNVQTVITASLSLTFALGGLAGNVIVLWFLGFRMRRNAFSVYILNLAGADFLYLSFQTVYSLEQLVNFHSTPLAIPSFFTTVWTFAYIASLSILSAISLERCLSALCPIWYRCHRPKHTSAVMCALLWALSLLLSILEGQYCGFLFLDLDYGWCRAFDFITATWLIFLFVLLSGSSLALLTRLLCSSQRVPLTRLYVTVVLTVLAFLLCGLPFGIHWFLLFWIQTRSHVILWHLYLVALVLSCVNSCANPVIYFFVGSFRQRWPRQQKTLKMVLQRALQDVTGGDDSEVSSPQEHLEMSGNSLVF

[2] = test system: U2OS cells (untransfected); assay: Ca2+ mobilization in U2OS cells lacking MrgX2; format: cell-based, human
[3] = test system: rat MrgX2 (rMrgX2, Mrgprb3); assay: Ca2+ mobilization; format: cell-based; conditions: for calcium response (in words): no Gα16
[4] = cited from earlier work
minipig MrgX2 (mpMrgX2) = target: T2, minipig MrgX2 (mpMrgX2) (Sus scrofa, UniProt A0A4Y5P9C0); assay: Ca2+ mobilization; format: cell-based; conditions: for calcium response (in words): truncated mpMrgX2
T2 sequence (A0A4Y5P9C0 38-367): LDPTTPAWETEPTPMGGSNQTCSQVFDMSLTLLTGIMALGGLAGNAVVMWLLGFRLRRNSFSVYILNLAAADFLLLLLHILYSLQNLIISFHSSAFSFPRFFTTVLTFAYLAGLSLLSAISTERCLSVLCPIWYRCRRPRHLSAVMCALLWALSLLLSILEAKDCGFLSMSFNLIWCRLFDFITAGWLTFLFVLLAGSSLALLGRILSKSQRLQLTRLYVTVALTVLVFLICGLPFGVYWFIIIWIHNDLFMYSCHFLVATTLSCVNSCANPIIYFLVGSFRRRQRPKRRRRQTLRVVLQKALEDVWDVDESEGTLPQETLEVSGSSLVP

[5] = minipig; cited from earlier work
[6] = target: T3, mouse MrgX2 (mMrgX2, Mrgprb2) (Mus musculus, UniProt Q3KNA1); assay: Ca2+ mobilization; format: cell-based; conditions: no Gα16, up to 1mM
T3 sequence (Q3KNA1 1-338): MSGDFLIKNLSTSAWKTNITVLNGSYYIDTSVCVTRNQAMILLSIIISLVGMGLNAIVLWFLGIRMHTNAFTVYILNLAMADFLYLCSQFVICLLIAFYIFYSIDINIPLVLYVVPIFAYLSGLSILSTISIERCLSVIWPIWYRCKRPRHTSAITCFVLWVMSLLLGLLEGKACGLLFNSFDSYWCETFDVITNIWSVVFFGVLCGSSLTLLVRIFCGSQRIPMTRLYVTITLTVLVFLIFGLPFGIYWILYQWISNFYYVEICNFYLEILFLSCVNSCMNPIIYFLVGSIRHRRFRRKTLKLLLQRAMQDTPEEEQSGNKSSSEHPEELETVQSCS

[7] = dog, cited from earlier work
human MrgX2 (hMrgX2) [8] = target: T4, human MrgX2 (hMrgX2) (Homo sapiens, UniProt Q96LB1); assay: Ca2+ mobilization; format: cell-based
T4 sequence (Q96LB1 1-330): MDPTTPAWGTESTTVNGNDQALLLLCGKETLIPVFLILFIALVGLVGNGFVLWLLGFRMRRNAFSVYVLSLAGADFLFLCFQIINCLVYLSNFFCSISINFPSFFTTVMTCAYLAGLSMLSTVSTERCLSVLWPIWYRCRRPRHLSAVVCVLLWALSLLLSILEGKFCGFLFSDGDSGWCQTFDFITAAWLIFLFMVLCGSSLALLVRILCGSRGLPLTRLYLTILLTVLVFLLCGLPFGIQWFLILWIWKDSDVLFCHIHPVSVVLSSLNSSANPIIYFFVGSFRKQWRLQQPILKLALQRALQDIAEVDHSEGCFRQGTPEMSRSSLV

human MrgX2 (hMrgX2) [9] = target: T4, human MrgX2 (hMrgX2); assay: Ca2+ mobilization; format: cell-based; remark: listed apart in the source
mpMrgX2 = assay: Ca2+ mobilization, mpMrgX2 transfected into HEK293-MSRII-Gα16 cells; format: cell-based, minipig; conditions: data not shown
HEK293-MSRII-Gα16 cells = assay: Ca2+ mobilization, untransfected HEK293-MSRII-Gα16 host cells; format: cell-based, human; conditions: data not shown
[10] = test system: mouse MrgX2 versus human MrgX2; conditions: cited from earlier work
[11] = target: EED (embryonic ectoderm development) (Homo sapiens, UniProt O75530); assay: Binding to EED
rat = assay: Intravenous pharmacokinetic study in rat: observed adverse signs; format: in vivo; conditions: intravenous bolus 5 mg/kg
pig MrgX2 (pMrgX2) = assay: Ca2+ mobilization; format: cell-based; conditions: data not shown
human MrgX1 (hMrgX1) = human MrgX1 (hMrgX1) (Homo sapiens, UniProt Q96LB2); assay: Ca2+ mobilization; format: cell-based; conditions: hMrgX1-Gα16 cells
[12] = untransfected U2OS parent cells

Chain of human MrgX1 (hMrgX1) (Q96LB2 whole entry): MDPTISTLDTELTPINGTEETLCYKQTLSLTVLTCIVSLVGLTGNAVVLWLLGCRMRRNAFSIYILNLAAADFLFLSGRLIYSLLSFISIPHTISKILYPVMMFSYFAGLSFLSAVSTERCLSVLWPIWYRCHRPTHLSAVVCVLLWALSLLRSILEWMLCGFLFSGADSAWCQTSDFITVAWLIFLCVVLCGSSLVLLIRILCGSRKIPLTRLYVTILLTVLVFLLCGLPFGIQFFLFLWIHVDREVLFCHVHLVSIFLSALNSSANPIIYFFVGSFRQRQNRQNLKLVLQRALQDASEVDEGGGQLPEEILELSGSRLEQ
Chain of EED (embryonic ectoderm development) (O75530 whole entry, species assumed): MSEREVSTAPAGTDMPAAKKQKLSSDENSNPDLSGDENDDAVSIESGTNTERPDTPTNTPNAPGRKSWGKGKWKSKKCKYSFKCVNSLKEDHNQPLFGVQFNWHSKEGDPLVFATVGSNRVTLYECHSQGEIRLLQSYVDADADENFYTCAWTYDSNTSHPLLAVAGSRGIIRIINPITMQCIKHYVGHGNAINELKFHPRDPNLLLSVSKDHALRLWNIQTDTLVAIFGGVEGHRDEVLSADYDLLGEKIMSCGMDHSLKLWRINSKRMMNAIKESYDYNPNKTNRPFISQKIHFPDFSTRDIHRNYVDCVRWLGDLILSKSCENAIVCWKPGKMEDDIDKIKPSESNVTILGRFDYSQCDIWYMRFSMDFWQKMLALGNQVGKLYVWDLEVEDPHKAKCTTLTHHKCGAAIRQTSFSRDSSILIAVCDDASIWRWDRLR

CN[C@H](CC(C)C)C(=O)N[C@H]1C(=O)N[C@@H](CC(N)=O)C(=O)N[C@H]2C(=O)N[C@H]3C(=O)N[C@H](C(=O)N[C@H](C(=O)O)c4cc(O)cc(O)c4-c4cc3ccc4O)[C@H](O)c3ccc(c(Cl)c3)Oc3cc2cc(c3O[C@@H]2O[C@H](CO)[C@@H](O)[C@H](O)[C@H]2O[C@H]2C[C@](C)(N)[C@H](O)[C@H](C)O2)Oc2ccc(cc2Cl)[C@H]1O [vancomycin]
EC50 [1]: 25.1 µM | Emax ([1]; U2OS): 97 ± 12% | calcium response (in words) [1]: full or near‐full agonist | calcium response (in words) [2, 12]: Negligible calcium responses | calcium response (in words) [3]: did not reach maximal effect at 1mM | protein binding ([4]; serum): 50% | Cmax ([4]; vancomycin-treated patients): > 30 µM | trough (lowest) free serum concentration ([4]; vancomycin-treated patients): ≈ 5 ± 2 µmol/L | trough serum concentration ([4]; vancomycin-treated patients): 13.6 ± 5.9 mg/L | EC50 (minipig MrgX2 (mpMrgX2)): 158 µM | Emax (minipig MrgX2 (mpMrgX2); U2OS): 84 ± 13% | calcium response (in words) (minipig MrgX2 (mpMrgX2)): full or near‐full agonist | Cmax [5]: 34000 ng/mL | free Cmax [5]: ≈ 23 µmol/L | histamine-like symptoms (in words) [5]: no histamine‐like symptoms were observed | calcium response (in words) [6]: did not reach maximal effect at 1mM | free Cmax ([7]; assuming 50% protein binding): ≈ 35 µmol/L | Cmax [7]: ≈ 100 µg/ml | histamine-like symptoms (in words) [7]: no histamine‐like symptoms were observed | EC50 (human MrgX2 (hMrgX2) [8]): 39.8 µM | Emax (human MrgX2 (hMrgX2) [8]): 87 ± 8%

C[C@@H](O)[C@@H]1NC(=O)[C@H](CCCCN)NC(=O)[C@H](Cc2c[nH]c3ccccc23)NC(=O)[C@H](Cc2ccccc2)NC(=O)[C@H](Cc2ccccc2)NC(=O)[C@H](CC(N)=O)NC(=O)[C@H](CCCCN)NC(=O)[C@@H](NC(=O)[C@@H]2CCCN2)CSSC[C@@H](C(=O)N[C@@H](CCCCN)C(=O)O)NC(=O)[C@H](CO)NC(=O)[C@H](CO)NC(=O)[C@H](Cc2ccccc2)NC1=O [Cortistatin-14] (HELM PEPTIDE1{P.C.K.N.F.F.W.K.T.F.S.S.C.K}$PEPTIDE1,PEPTIDE1,2:R3-13:R3$$$V2.0)
calcium response (in words) [2, 12]: No U2OS calcium response | EC50 (human MrgX2 (hMrgX2) [9]): 0.316 to 0.794 µM | calcium response (in words) [3]: conferred a response | calcium response (in words) (mpMrgX2): conferred calcium responses | calcium response (in words) (HEK293-MSRII-Gα16 cells): failed to activate untransfected host cells

NCCc1c[nH]cn1 [histamine]
calcium response (in words) (HEK293-MSRII-Gα16 cells): did not cause calcium release

CAS #: 130308-48-4 [Icatibant]
calcium response (in words) [2, 12]: No U2OS calcium response | fold less potent at mouse than human MrgX2 [10]: twofold

CCCC[C@@H]1NC(=O)[C@@](C)(NC(C)=O)CCCC=CCCC[C@@](C)(C(=O)N[C@@H](CC(N)=O)C(=O)N[C@@H](CCCNC(=N)N)C(=O)N[C@@H](CCC(N)=O)C(=O)N[C@@H](CCCCN)C(=O)N[C@H](C(=O)N[C@@H](CC(C)C)C(=O)N[C@@H](CCC(=O)O)C(=O)N[C@@H](CCCNC(=N)N)C(=O)N[C@H](C(=O)N[C@@]2(C)CCCC=CCCC[C@@](C)(C(=O)N[C@@H](CCC(=O)O)C(=O)N[C@@H](Cc3c[nH]c4ccccc34)C(=O)N[C@@H](CCCCN)C(=O)N[C@@H](CCC(N)=O)C(=O)N[C@@H](CCCNC(=N)N)C(N)=O)NC(=O)[C@H](CC(N)=O)NC(=O)[C@H](CC(C)C)NC(=O)[C@H]([C@@H](C)CC)NC2=O)[C@@H](C)O)[C@@H](C)CC)NC(=O)[C@H](CO)NC(=O)[C@H](Cc2ccccc2)NC1=O (relative stereo) [Peptide 4]
IC50 (binding to EED) [11]: high affinity | time to observation of symptoms (rat): ≤ 3 min

CCCC[C@@H]1NC(=O)[C@@](C)(NC(C)=O)CCCC=CCCC[C@@](C)(C(=O)N[C@@H](CC(N)=O)C(=O)N[C@@H](CCCNC(=N)N)C(=O)N[C@@H](CCC(N)=O)C(=O)N[C@@H](CCCCN)C(=O)N[C@H](C(=O)N[C@@H](CC(C)C)C(=O)N[C@@H](CCCNC(=N)N)C(=O)N[C@@H](CCCNC(=N)N)C(=O)N[C@H](C(=O)N[C@@]2(C)CCCC=CCCC[C@@](C)(C(=O)N[C@@H](CCC(=O)O)C(=O)N[C@@H](Cc3c[nH]c4ccccc34)C(=O)N[C@@H](CCCCN)C(=O)N[C@@H](CCC(N)=O)C(=O)N[C@@H](CCCNC(=N)N)C(N)=O)NC(=O)[C@H](CC(N)=O)NC(=O)[C@H](CC(C)C)NC(=O)[C@H]([C@@H](C)CC)NC2=O)[C@@H](C)O)[C@@H](C)CC)NC(=O)[C@H](CO)NC(=O)[C@H](Cc2ccccc2)NC1=O (relative stereo) [GSK3212448]
calcium response (in words) [1]: activated | calcium response (in words) ([2]; U2OS cells transduced with Gα16 in the absence of hMrgX2): but not Gα16‐U2OS cells | fold more potent than reference agonist 48/80 ([3]; rMrgX2 in U2OS cells): 18 fold | calcium response (in words) (pig MrgX2 (pMrgX2)): activated | calcium response (in words) (minipig MrgX2 (mpMrgX2)): activated | calcium response (in words) (human MrgX2 (hMrgX2) [8]; hMrgX2-Gα16-U2OS cells): could activate hMrgX2‐Gα16‐U2OS | time to observation of symptoms (rat): ≤ 2 min

VGRPEWWMDYNKRYG [BAM8-22]
calcium response (in words) (human MrgX1 (hMrgX1)): higher potency at hMrgX1‐Gα16 cells
